Assay results from ChEMBL document CHEMBL6114992, “Design, synthesis, biological evaluation, and mechanism of action of new pyrazines as anticancer agents in vitro and in vivo” (Bioorg Med Chem, 2025).
Each block holds one compound with its values, some of them ahead of it. Calls of active or inactive are those of the source. No cut-off for these calls is given here.

Legend:
[1] = test system: U-937; test: Induction of apoptosis in human U-937 cells assessed as late apoptotic cells at 2.5 uM incubated for 48 hrs by Annexin V-FITC/PI staining based flow cytometry (reference value: 1.96 %); assay type: functional
[2] = test system: U-937; test: Induction of apoptosis in human U-937 cells assessed as viable cells at 0.5 uM incubated for 48 hrs by Annexin V-FITC/PI staining based flow cytometry (reference value: 93.30 %); assay type: functional; conditions: read-out: Activity
[3] = test system: SK-OV-3; test: Induction of apoptosis in human SK-OV-3 cells assessed as early apoptotic cells at 2.5 uM incubated for 48 hrs by Annexin V-FITC/PI staining based flow cytometry (reference value: 0.08 %); assay type: functional
[4] = test system: U-937; test: Induction of apoptosis in human U-937 cells assessed as necrotic cells at 1 uM incubated for 48 hrs by Annexin V-FITC/PI staining based flow cytometry (reference value: 2.03 %); assay type: functional
[5] = test system: U-937; test: Induction of apoptosis in human U-937 cells assessed as viable cells at 2.5 uM incubated for 48 hrs by Annexin V-FITC/PI staining based flow cytometry (reference value: 93.30 %); assay type: functional; conditions: read-out: Activity
[6] = test system: SK-OV-3; test: Downregulation of XIAP expression in human SK-OV-3 cells incubated for 48 hrs by Western blot analysis; assay type: functional, cell-based
[7] = test system: SK-OV-3; test: Antitumor activity against human SK-OV-3 cells xenografted in nude mouse assessed as tumor growth suppression at 30 to 60 mg/kg, ip qd treated for 14 days; assay type: functional, organism-based; conditions: dose 30-60 mg/kg, time 14.0 day
[8] = test system: U-937; test: Induction of apoptosis in human U-937 cells assessed as late apoptotic cells at 0.5 uM incubated for 48 hrs by Annexin V-FITC/PI staining based flow cytometry (reference value: 1.96 %); assay type: functional
[9] = test system: U-937; test: Induction of apoptosis in human U-937 cells assessed as early apoptotic cells at 2.5 uM incubated for 48 hrs by Annexin V-FITC/PI staining based flow cytometry (reference value: 2.72 %); assay type: functional
[10] = test system: U-937; test: Induction of apoptosis in human U-937 cells assessed as necrotic cells at 0.5 uM incubated for 48 hrs by Annexin V-FITC/PI staining based flow cytometry (reference value: 2.03 %); assay type: functional
[11] = Toxicity in nude mouse xenografted with human SK-OV-3 cells assessed as histopathological change in lungs at 30 to 60 mg/kg, ip qd treated for 14 days by H and E staining based analysis; assay type: organism-based; conditions: in vivo, 336 h, dose 30-60 mg/kg, time 14 day
[12] = test system: THP-1; test: Downregulation of TAZ expression in human THP-1 cells incubated for 48 hrs by Western blot analysis; assay type: functional, cell-based; conditions: dose 0.5-2.5 µM
[13] = test system: U-937; test: Induction of apoptosis in human U-937 cells assessed as change in mitochondrial membrane potential at 5 uM incubated for 48 hrs by JC-1 staining based flow cytometry (reference value: 2.20 %); assay type: functional
[14] = test system: U-937; test: Downregulation of TAZ expression in human U-937 cells incubated for 48 hrs by Western blot analysis; assay type: functional, cell-based; conditions: dose 0.5-2.5 µM
[15] = test system: SK-OV-3; test: Downregulation of GLI1 expression in human SK-OV-3 cells incubated for 48 hrs by Western blot analysis; assay type: functional, cell-based; conditions: dose 1-5 µM
[16] = Toxicity in nude mouse xenografted with human SK-OV-3 cells assessed as histopathological change in heart at 30 to 60 mg/kg, ip qd treated for 14 days by H and E staining based analysis; assay type: organism-based; conditions: in vivo, 336 h, dose 30-60 mg/kg, time 14 day
[17] = test system: SK-OV-3; test: Induction of apoptosis in human SK-OV-3 cells assessed as change in mitochondrial membrane potential at 1 uM incubated for 48 hrs by JC-1 staining based flow cytometry (reference value: 5.34 %); assay type: functional
[18] = test system: U-937; test: Induction of apoptosis in human U-937 cells assessed as early apoptotic cells at 0.5 uM incubated for 48 hrs by Annexin V-FITC/PI staining based flow cytometry (reference value: 2.72 %); assay type: functional
[19] = biological target: Signal transducer and activator of transcription 3 (Homo sapiens) (UniProt P40763); test: Inhibition of STAT3 phosphorylation in human U-937 cells at 0.5 to 2.5 uM incubated for 48 hrs by Western blot analysis; assay type: cell-based; conditions: dose 0.5-2.5 µM
Chain of Signal transducer and activator of transcription 3 (Homo sapiens) (P40763 whole entry): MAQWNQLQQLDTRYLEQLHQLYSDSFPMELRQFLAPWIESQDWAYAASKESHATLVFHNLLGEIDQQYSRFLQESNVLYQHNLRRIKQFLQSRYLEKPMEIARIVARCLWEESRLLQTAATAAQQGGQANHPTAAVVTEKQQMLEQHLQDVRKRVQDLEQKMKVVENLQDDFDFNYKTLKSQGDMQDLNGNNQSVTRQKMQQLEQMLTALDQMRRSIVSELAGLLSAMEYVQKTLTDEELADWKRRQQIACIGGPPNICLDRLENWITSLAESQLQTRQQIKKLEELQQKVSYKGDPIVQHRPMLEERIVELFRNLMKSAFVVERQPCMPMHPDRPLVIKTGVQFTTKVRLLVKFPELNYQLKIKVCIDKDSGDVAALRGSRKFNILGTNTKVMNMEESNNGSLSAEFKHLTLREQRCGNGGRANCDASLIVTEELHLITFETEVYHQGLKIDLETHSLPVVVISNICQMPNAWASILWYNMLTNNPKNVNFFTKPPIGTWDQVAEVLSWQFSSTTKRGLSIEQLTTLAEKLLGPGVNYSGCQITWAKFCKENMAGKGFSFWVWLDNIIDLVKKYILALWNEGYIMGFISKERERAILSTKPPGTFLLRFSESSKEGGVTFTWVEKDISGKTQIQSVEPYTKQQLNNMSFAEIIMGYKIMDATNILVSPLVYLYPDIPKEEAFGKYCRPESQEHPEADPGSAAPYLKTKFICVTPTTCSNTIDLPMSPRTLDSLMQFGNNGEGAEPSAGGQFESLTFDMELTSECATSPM

[20] = Toxicity in nude mouse xenografted with human SK-OV-3 cells assessed as histopathological change in spleen at 30 to 60 mg/kg, ip qd treated for 14 days by H and E staining based analysis; assay type: organism-based; conditions: in vivo, 336 h, dose 30-60 mg/kg, time 14 day
[21] = Toxicity in nude mouse xenografted with human SK-OV-3 cells assessed as histopathological change in kidney at 30 to 60 mg/kg, ip qd treated for 14 days by H and E staining based analysis; assay type: organism-based; conditions: in vivo, 336 h, dose 30-60 mg/kg, time 14 day
[22] = test system: U-937; test: Induction of apoptosis in human U-937 cells assessed as necrotic cells at 2.5 uM incubated for 48 hrs by Annexin V-FITC/PI staining based flow cytometry (reference value: 2.03 %); assay type: functional
[23] = test system: U-937; test: Induction of apoptosis in human U-937 cells assessed as viable cells at 1 uM incubated for 48 hrs by Annexin V-FITC/PI staining based flow cytometry (reference value: 93.30 %); assay type: functional; conditions: read-out: Activity
[24] = test system: KG-1; test: Downregulation of XIAP expression in human KG-1 cells incubated for 48 hrs by Western blot analysis; assay type: functional, cell-based; conditions: dose 0.5-2.5 µM
[25] = test system: U-937; test: Induction of apoptosis in human U-937 cells assessed as late apoptotic cells at 1 uM incubated for 48 hrs by Annexin V-FITC/PI staining based flow cytometry (reference value: 1.96 %); assay type: functional
[26] = test system: THP-1; test: Downregulation of Bcl-2 expression in human THP-1 cells incubated for 48 hrs by Western blot analysis; assay type: functional, cell-based; conditions: dose 0.5-2.5 µM
[27] = Toxicity in nude mouse xenografted with human SK-OV-3 cells assessed as histopathological change in liver at 30 to 60 mg/kg, ip qd treated for 14 days by H and E staining based analysis; assay type: organism-based; conditions: in vivo, 336 h, dose 30-60 mg/kg, time 14 day
[28] = test system: SK-OV-3; test: Induction of apoptosis in human SK-OV-3 cells assessed as late apoptotic cells at 2.5 uM incubated for 48 hrs by Annexin V-FITC/PI staining based flow cytometry (reference value: 4.51 %); assay type: functional
[29] = test system: U-937; test: Downregulation of XIAP expression in human U-937 cells incubated for 48 hrs by Western blot analysis; assay type: functional, cell-based
[30] = biological target: Signal transducer and activator of transcription 3 (Homo sapiens) (UniProt P40763); test: Inhibition of STAT3 phosphorylation in human SK-OV-3 cells at 1 to 5 uM incubated for 48 hrs by Western blot analysis; assay type: cell-based; conditions: dose 1-5 µM
[31] = test system: U-937; test: Induction of apoptosis in human U-937 cells assessed as change in mitochondrial membrane potential at 1 uM incubated for 48 hrs by JC-1 staining based flow cytometry (reference value: 2.20 %); assay type: functional
[32] = test system: U-937; test: Induction of apoptosis in human U-937 cells assessed as early apoptotic cells at 1 uM incubated for 48 hrs by Annexin V-FITC/PI staining based flow cytometry (reference value: 2.72 %); assay type: functional
[33] = test system: SK-OV-3; test: Downregulation of c-Myc expression in human SK-OV-3 cells incubated for 48 hrs by Western blot analysis; assay type: functional, cell-based; conditions: dose 0.5-2.5 µM
[34] = test system: SK-OV-3; test: Downregulation of TAZ expression in human SK-OV-3 cells incubated for 48 hrs by Western blot analysis; assay type: functional, cell-based; conditions: dose 0.5-2.5 µM
[35] = test system: KG-1; test: Upregulation of p21 expression in human KG-1 cells incubated for 48 hrs by Western blot analysis; assay type: functional, cell-based; conditions: dose 0.5-2.5 µM
[36] = test system: KG-1; test: Upregulation of Bax expression in human KG-1 cells incubated for 48 hrs by Western blot analysis; assay type: functional, cell-based; conditions: dose 0.5-2.5 µM
[37] = test system: THP-1; test: Downregulation of Bcl-XL expression in human THP-1 cells incubated for 48 hrs by Western blot analysis; assay type: functional, cell-based; conditions: dose 0.5-2.5 µM

inhibition [19]: Active
inhibition [30]: Active
SMILES: Cc1nccnc1C(=O)/C=C/c1cccc(C#N)c1
Activity [1]: 9.73%
viability at 0.5 µM [2]: 80.9%
Activity [3]: 0.77%
Activity [4]: 3.14%
viability at 2.5 µM [5]: 75.5%
Activity [6]: Dose-dependent-effect
Activity [7]: Active
Activity [8]: 6.79%
Activity [9]: 11.68%
Activity [10]: 2.64%
Activity [11]: Non-toxic
Activity [12]: Dose-dependent-effect
Activity [13]: 21.63%
Activity [14]: Dose-dependent-effect
Activity [15]: Dose-dependent-effect
Activity [16]: Non-toxic
Activity [17]: 13.1%
Activity [18]: 9.68%
Activity [20]: Non-toxic
Activity [21]: Non-toxic
Activity [22]: 3.09%
viability at 1 µM [23]: 76.2%
Activity [24]: Dose-dependent-effect
Activity [25]: 9.69%
Activity [26]: Dose-dependent-effect
Activity [27]: Non-toxic
Activity [28]: 26.65%
Activity [29]: Dose-dependent-effect
Activity [31]: 3.68%
Activity [32]: 10.98%

SMILES: CCc1nccnc1C(=O)/C=C/c1ccccn1
Activity [3]: 0.41%
Activity [33]: Dose-dependent-effect
Activity [6]: Dose-dependent-effect
Activity [34]: Dose-dependent-effect
Activity [35]: Dose-dependent-effect
Activity [17]: 11.51%
Activity [24]: Dose-dependent-effect
Activity [36]: Dose-dependent-effect
Activity [28]: 23.46%
Activity [37]: Dose-dependent-effect
